In patent US7964531B2, “3-phenoxy-4-pyridazinol derivatives and herbicidal composition containing the same” (Mitsui Chemicals Agro, Inc., priority 2001, dated 2011):

Assays:
Assay type in all cases: in vivo
[1] = tested on: transplanted paddy-field rice; experiment: Test Example 1: crop injury against transplanted paddy-field rice; conditions: wettable powder applied 3 days after transplanting, judged after 25 days
How it was run: (§1)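 Herbicidal effect and crop injury were rated 0 (0-10% inhibition) to 5 (91-100%) 25 days after treatment. Water-diluted wettable powder was applied to flooded greenhouse pots 3 days after transplanting 2.2-leaf rice. The pots held seeded weeds and sprouted Cyperus serotinus tubers.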

tall morningglory = experiment: Test Example 3: herbicidal effects (foliar treatment); conditions: chemical dosage 2 kg/a; foliar treatment at 10 to 15 cm; judged after 14 days
Description: (§2) Judgment Standard • 0: Growth inhibition rate; 0 to 10% • 1: Growth inhibition rate; 11 to 30% • 2: Growth inhibition rate; 31 to 50% • 3: Growth inhibition rate; 51 to 70% • 4: Growth inhibition rate; 71 to 90% • 5: Growth inhibition rate; 91 to 100%.
(§3) Upland soil was filled in 150 cm^2 pot, and seeds of velvetleaf, tall morningglory, indian mustard, black nightshade redroot pigweed were sowed, and grown in a greenhouse. After the weeds were grown with 10 to 15 cm or so, a predetermined chemical dosage of the wettable powder prepared in accordance with Preparation example 1 was diluted with water containing 0.05% of GRAMIN-S and applied as a foliar treatment. After 14 days from the treatment, herbicidal effects were judged in accordance with the judgment standard of Test example 1, and the results were shown in Table 4. Incidentally, “-” in the table means no test was carried out.

black nightshade = experiment: as above; conditions: chemical dosage 2 kg/a; foliar treatment at 10 to 15 cm; judged after 14 days
Description: as §2, §3

redroot pigweed = experiment: as above; conditions: chemical dosage 2 kg/a; foliar treatment at 10 to 15 cm; judged after 14 days
Description: as §2, §3

velvetleaf = experiment: as above; conditions: chemical dosage 2 kg/a; foliar treatment at 10 to 15 cm; judged after 14 days
Description: as §2, §3

indian mustard = experiment: as above; conditions: chemical dosage 2 kg/a; foliar treatment at 10 to 15 cm; judged after 14 days
Description: as §2, §3

Eleocharis kuroguwai = experiment: Test Example 4: herbicidal effects of mixed wettable powder, paddy-field pot test; conditions: no second compound, after 25 days
How it was run: (§4)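 Flooded greenhouse pots of paddy soil were sown in the top 1 cm with dormancy-broken weed seeds and planted with tubers, and 2.2-leaf rice was transplanted. Three days later, water-diluted wettable powder was applied at set dosages, and growth inhibition was rated 25 days after that on a 0 (0–15%) to 5 (96–100%) scale.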

Cyperus serotinus [2] = experiment: as above; conditions: no second compound, after 25 days
How it was run: as §4

[3] = tested on: annual broad-leaved weeds (Lindernia spp. and Rotala indica); experiment: as above; conditions: no second compound, after 25 days
How it was run: as §4

[4] = tested on: barnyardgrass (Echinochloa oryzicola Vasing.); experiment: as above; conditions: no second compound, after 25 days
How it was run: as §4

Sagittaria pygmaea = experiment: as above; conditions: no second compound, after 25 days
How it was run: as §4

Scirpus joncoides [5] = experiment: as above; conditions: no second compound, after 25 days
How it was run: as §4

[6] = tested on: annual broad-leaved weeds (Lindernia spp., Rotala indica); experiment: Test Example 1: herbicidal effects, paddy-field pot test; conditions: wettable powder applied 3 days after transplanting, judged after 25 days
How it was run: as §1

Cyperus serotinus [7] = experiment: as above; conditions: wettable powder applied 3 days after transplanting, judged after 25 days
How it was run: as §1

[8] = tested on: barnyardgrass (Echinochloa oryzicola Vasing.); experiment: as above; conditions: wettable powder applied 3 days after transplanting, judged after 25 days
How it was run: as §1

Scirpus joncoides [9] = experiment: as above; conditions: wettable powder applied 3 days after transplanting, judged after 25 days
How it was run: as §1

[10] = tested on: transplanted paddy-field rice; experiment: Test Example 4: crop injury against transplanted paddy-field rice; conditions: no second compound, after 25 days
How it was run: as §4

[11] = tested on: indian mustard (Brassica juncea (L.) Czern. et Coss); experiment: Test Example 2: herbicidal effects (soil treatment); conditions: dosage 2 kg/a; soil treatment the day after seeding; judged after 21 days
How it was run: (§5)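 Pre-emergence test: seeds sown in upland soil in 150 cm^2 pots in a greenhouse, wettable powder diluted in water applied to soil surface the day after sowing at a predetermined dosage. Growth inhibition scored 21 days after treatment on a 0–5 scale (0: 0–10% to 5: 91–100%).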

barnyardgrass = experiment: as above; conditions: dosage 2 kg/a; soil treatment the day after seeding; judged after 21 days
How it was run: as §5

What does the source list for `Cc1cccc(C2CC2)c1Oc1nnc(Cl)cc1O` [Example 23]?
Crop injury against transplanted rice ([1]; chemical dosage 10 g/a): 0 (Growth inhibition rate; 0 to 10%); Crop injury against transplanted rice ([1]; chemical dosage 20 g/a): 2 (Growth inhibition rate; 31 to 50%); Herbicidal effects Tall Morningglory (tall morningglory): 5 (Growth inhibition rate; 91 to 100%); Herbicidal effects Black Night-shade (black nightshade): 5 (Growth inhibition rate; 91 to 100%); Herbicidal effects Redroot pigweed (redroot pigweed): 4 (Growth inhibition rate; 71 to 90%); Herbicidal effects Velvet-leaf (velvetleaf): 4 (Growth inhibition rate; 71 to 90%); Herbicidal effects indian mustard (indian mustard): 5 (Growth inhibition rate; 91 to 100%); Herbicidal effects Eleocharis kuroguwai (Eleocharis kuroguwai; derivative 5 g/a): 2 (Growth inhibition rate; 36 to 55%); Herbicidal effects Eleocharis kuroguwai (Eleocharis kuroguwai; derivative 10 g/a): 3 (Growth inhibition rate; 56 to 75%); Herbicidal effects Cyperus serotinus (Cyperus serotinus [2]; derivative 5 g/a): 5 (Growth inhibition rate; 96 to 100%); Herbicidal effects Cyperus serotinus (Cyperus serotinus [2]; derivative 10 g/a): 5 (Growth inhibition rate; 96 to 100%); Herbicidal effects Broad leaf ([3]; derivative 5 g/a): 5 (Growth inhibition rate; 96 to 100%); Herbicidal effects Broad leaf ([3]; derivative 10 g/a): 5 (Growth inhibition rate; 96 to 100%); Herbicidal effects Barnyard grass ([4]; derivative 5 g/a): 2 (Growth inhibition rate; 36 to 55%); Herbicidal effects Barnyard grass ([4]; derivative 10 g/a): 3 (Growth inhibition rate; 56 to 75%); Herbicidal effects Sagittaria pygmaea (Sagittaria pygmaea; derivative 5 g/a): 5 (Growth inhibition rate; 96 to 100%); Herbicidal effects Sagittaria pygmaea (Sagittaria pygmaea; derivative 10 g/a): 5 (Growth inhibition rate; 96 to 100%); Herbicidal effects Scirpus joncoides (Scirpus joncoides [5]; derivative 5 g/a): 5 (Growth inhibition rate; 96 to 100%); Herbicidal effects Scirpus joncoides (Scirpus joncoides [5]; derivative 10 g/a): 5 (Growth inhibition rate; 96 to 100%); Herbicidal effects Broad leaf ([6]; chemical dosage 10 g/a): 5 (Growth inhibition rate; 91 to 100%); Herbicidal effects Broad leaf ([6]; chemical dosage 20 g/a): 5 (Growth inhibition rate; 91 to 100%); Herbicidal effects Cyperus serotinus (Cyperus serotinus [7]; chemical dosage 10 g/a): 5 (Growth inhibition rate; 91 to 100%); Herbicidal effects Cyperus serotinus (Cyperus serotinus [7]; chemical dosage 20 g/a): 5 (Growth inhibition rate; 91 to 100%); Herbicidal effects Barnyard grass ([8]; chemical dosage 10 g/a): 3 (Growth inhibition rate; 51 to 70%); Herbicidal effects Barnyard grass ([8]; chemical dosage 20 g/a): 4 (Growth inhibition rate; 71 to 90%); Herbicidal effects Scirpus joncoides (Scirpus joncoides [9]; chemical dosage 10 g/a): 5 (Growth inhibition rate; 91 to 100%); Herbicidal effects Scirpus joncoides (Scirpus joncoides [9]; chemical dosage 20 g/a): 5 (Growth inhibition rate; 91 to 100%); Crop injury against transplanted rice ([10]; derivative 5 g/a): 0 (Growth-inhibition rate; 0 to 15%); Crop injury against transplanted rice ([10]; derivative 10 g/a): 0 (Growth-inhibition rate; 0 to 15%); Herbicidal effects indian mustard [11]: 5 (Growth inhibition rate; 91 to 100%); Herbicidal effects Barnyard-grass (barnyardgrass): 4 (Growth inhibition rate; 71 to 90%)
